Reference: patent US20240358693A1, “METHODS OF TREATING PAIN” (Aisa Pharma, Inc., priority 2023, published 2024)

Columns and labels:
[1] = oral dosing; cited from earlier work
[2] = tested on: plasma protein; conditions: oral; cited from earlier work
[3] = 10 mg Cilnidipine, Healthy Volunteers, single oral dose; cited from earlier work
[4] = target: Nav 1.7 sodium channel (Homo sapiens, UniProt Q15858); conditions: 20 mg dose of cilnidipine; cited from earlier work
[5] = In vitro equilibrium dialysis (RED) protein binding, rat plasma; format: in vitro ADME; conditions: male, Sprague-Dawley, pH 7.4
Method: (§1) Cilnidipine was tested by PsychoGenics using standard methodology in 96-well RED (Rapid Equilibrium Dialysis) plates from Thermo Fisher Scientific. Male Sprague-Dawley plasma and brain were obtained from BioIVT to provide the required protein matrix. Plasma was used undiluted, and brain homogenate was diluted 3 to 1 with PBS, pH 7.4. The protein matrix was spiked with the test compound dissolved in DMSO to achieve a 10 μM solution. Three chambers were used to allow for triplicate measures with a final DMSO concentration of <1% in each. The dialysate compartments of the 96-well dialysis chamber was loaded with PBS, pH 7.4 and the sample side was loaded with equal volume of the spiked protein matrix. The dialysis plate was then sealed and incubated at 37° C. for 4 h. After the incubation, samples were taken from each compartment. The buffer side was diluted with the appropriate matrix (plasma or brain homogenate) and the protein matrix side diluted with phosphate buffer. Resultant samples were then crashed in acetonitrile, centrifuged and the supernatant mixed with an aqueous solution providing samples for UPLC-MS/MS analysis. […] This control sample served as the basis for the determination of recovery. […] Samples were analyzed by UPLC-MS/MS using […] (MRM). The UPLC conditions consisted of a binary LC pump with autosampler, an InertSustain column (C18 column, 2.1×50 mm), utilizing gradient elution. The peak areas of the test compound in the buffer and test samples were used to calculate percent binding and recovery according to the following formulas: […]
(§2) The recovery determination serves as an indicator of reliability of the calculated protein binding value.
(§3) The characterization of protein binding is defined using the following ranges:
(§4) • Low 0 to 50% • Moderate 50 to 90% • High 90 to 99% • Very High>99%

[6] = tested on: rat plasma proteins; assay: as above; format: in vitro ADME
Method: as §1, §2, §3, §4

[7] = tested on: participants with SSc-RP; assay: Summary of data: dose response / overall response, Phase 2a study Part A; format: in vivo, human; conditions: 20 mg dose group
Excerpt: Table S provides a summary of data:

[8] = tested on: rat brain homogenate proteins; assay: In vitro equilibrium dialysis (RED) protein binding, rat brain homogenate; format: in vitro ADME
Method: as §1, §2, §3, §4

[9] = as above; format: in vitro ADME; conditions: male, Sprague-Dawley, rat, pH 7.4
Method: as §1, §2, §3, §4

[10] = male, Sprague-Dawley, plasma, 4 h, 10 μM, pH 7.4

Chain of Nav 1.7 sodium channel (Q15858 whole entry): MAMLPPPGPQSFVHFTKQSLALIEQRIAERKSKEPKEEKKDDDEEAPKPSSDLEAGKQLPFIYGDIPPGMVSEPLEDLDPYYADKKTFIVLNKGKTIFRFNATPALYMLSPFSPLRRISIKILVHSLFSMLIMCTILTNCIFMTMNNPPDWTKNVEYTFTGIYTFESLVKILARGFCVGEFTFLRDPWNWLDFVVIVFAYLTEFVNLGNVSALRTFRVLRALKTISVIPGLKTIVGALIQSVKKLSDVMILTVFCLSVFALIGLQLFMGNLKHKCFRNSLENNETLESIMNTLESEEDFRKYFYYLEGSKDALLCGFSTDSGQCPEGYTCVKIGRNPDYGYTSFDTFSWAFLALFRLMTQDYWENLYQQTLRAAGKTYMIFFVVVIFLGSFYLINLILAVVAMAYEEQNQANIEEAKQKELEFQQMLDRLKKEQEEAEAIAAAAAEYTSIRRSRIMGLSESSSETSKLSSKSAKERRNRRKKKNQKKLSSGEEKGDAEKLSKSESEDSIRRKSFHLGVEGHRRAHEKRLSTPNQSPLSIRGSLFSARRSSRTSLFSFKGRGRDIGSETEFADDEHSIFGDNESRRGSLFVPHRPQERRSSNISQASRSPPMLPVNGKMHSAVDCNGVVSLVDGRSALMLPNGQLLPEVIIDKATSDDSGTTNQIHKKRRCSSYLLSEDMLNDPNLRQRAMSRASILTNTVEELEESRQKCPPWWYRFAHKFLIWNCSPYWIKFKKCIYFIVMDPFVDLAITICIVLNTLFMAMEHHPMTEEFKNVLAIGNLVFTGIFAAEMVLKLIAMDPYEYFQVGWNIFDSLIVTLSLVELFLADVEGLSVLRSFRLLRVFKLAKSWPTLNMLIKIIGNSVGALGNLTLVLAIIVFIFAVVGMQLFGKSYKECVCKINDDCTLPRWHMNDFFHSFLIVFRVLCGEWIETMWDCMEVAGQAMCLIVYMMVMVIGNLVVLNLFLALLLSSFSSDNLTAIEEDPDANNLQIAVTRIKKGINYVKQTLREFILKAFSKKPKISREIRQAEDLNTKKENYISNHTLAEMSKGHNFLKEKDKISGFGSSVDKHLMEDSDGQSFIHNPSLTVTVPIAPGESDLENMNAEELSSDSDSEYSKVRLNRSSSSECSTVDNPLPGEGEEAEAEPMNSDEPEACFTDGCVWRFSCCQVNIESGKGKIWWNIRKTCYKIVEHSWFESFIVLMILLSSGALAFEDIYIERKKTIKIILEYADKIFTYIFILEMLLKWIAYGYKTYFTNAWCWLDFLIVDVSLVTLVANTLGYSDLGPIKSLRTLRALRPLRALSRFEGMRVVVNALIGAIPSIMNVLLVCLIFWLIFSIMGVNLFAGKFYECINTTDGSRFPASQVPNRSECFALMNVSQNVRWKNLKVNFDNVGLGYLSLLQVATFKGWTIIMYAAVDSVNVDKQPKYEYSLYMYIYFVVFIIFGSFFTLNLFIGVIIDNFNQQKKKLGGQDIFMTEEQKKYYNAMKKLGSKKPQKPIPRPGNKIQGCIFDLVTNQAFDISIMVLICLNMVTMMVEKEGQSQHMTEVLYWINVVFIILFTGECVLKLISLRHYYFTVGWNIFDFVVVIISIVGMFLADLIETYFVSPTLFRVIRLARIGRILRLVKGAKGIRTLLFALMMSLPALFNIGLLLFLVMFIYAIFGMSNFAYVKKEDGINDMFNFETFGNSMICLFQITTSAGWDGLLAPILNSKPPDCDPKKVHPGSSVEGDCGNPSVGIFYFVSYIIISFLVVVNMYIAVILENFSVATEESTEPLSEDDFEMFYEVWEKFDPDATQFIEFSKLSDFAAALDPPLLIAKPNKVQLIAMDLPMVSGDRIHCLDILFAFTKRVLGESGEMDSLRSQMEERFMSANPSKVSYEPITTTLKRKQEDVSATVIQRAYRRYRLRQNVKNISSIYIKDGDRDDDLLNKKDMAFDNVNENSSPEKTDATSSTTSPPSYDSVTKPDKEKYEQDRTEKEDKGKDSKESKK

COCCOC(=O)C1=C(C)NC(C)=C(C(=O)OC/C=C/c2ccccc2)C1c1cccc([N+](=O)[O-])c1 (stereo not drawn) [Cilnidipine, cilnidipine]
time to achieve maximal plasma concentrations (Tmax) [1]: ≤ 2 h
protein bound (protein binding in plasma) when given orally [2]: 98%
CL/F, Mean [3]: 304.7 L/h
inhibition of Nav 1.7 compared to an 1800 mg dose of gabapentin [4]: > 6 fold
recovery at 4 h, 10 μM [5]: 92.9 ± 4.69%
binding to plasma ([6]; male, Sprague-Dawley, 4 h, 10 μM, pH 7.4): 100%
Protein Binding (%) [6, 10]: 100.0 ± 0.00%
Unbound (%) [6, 10]: 0.0 ± 0.00%
stability in plasma ([6]; plasma): stable
Efficacy seen: overall response [7]: shows best overall
stability in brain [8]: stable
binding to brain ([8]; male, Sprague-Dawley, rat, 4 h, 10 μM, pH 7.4): 99.2%
Unbound (%) ([8]; male, Sprague-Dawley, rat, brain homogenate, 4 h, 10 μM, pH 7.4): 0.8 ± 0.03%
fraction unbound at 4 h, 10 μM ([9]; brain homogenate): 0.008
recovery at 4 h, 10 μM [9]: 93.7 ± 3.25%
